{"source": "the supplement of paper PMC10307832", "test_in_all_cases": "relative viability (nuclei count vs DMSO), 5 days (fraction); higher = more cells survive", "key": {"[1]": {"compound": "O=C(Nc1cc(C(F)(F)F)cc(C(F)(F)F)c1)c1cc(Cl)ccc1O [IMD-0354] + Cc1cc(Nc2cc(N3CCN(C)CC3)nc(Sc3ccc(NC(=O)C4CC4)cc3)n2)n[nH]1 [Tozasertib] (partner 0.1 µM)", "how_it_was_run": "(§1)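 Each reported value is a median over duplicate plates. It expresses relative viability: treated-well nuclei count divided by vehicle-well nuclei count. Lung cancer cell lines in 1536-well plates were dosed by pin tool a day after seeding, alone with one drug or with a fixed anchor-drug dose plus five library-drug doses (not always all listed) in √10 steps, and nuclei were counted after 5 days.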"}, "[2]": {"compound": "O=C(Nc1cc(C(F)(F)F)cc(C(F)(F)F)c1)c1cc(Cl)ccc1O [IMD-0354] + Nc1ncn([C@H]2C[C@H](O)[C@@H](CO)O2)c(=O)n1 [Decitabine] (partner 2 µM)", "how_it_was_run": "as §1"}, "[3]": {"compound": "Cc1cnc(CNC(=O)c2c(=O)c3ccc(N4CCCN(C)CC4)nc3n3c2sc2ccccc23)cn1 [CX-5461] + CC1(C)CCC(c2ccc(Cl)cc2)=C(CN2CCN(c3ccc(C(=O)NS(=O)(=O)c4ccc(N[C@H](CCN5CCOCC5)CSc5ccccc5)c(S(=O)(=O)C(F)(F)F)c4)cc3)CC2)C1 [Navitoclax] (partner 0.5 µM)", "how_it_was_run": "as §1"}, "[4]": {"compound": "O=C(Nc1cc(C(F)(F)F)cc(C(F)(F)F)c1)c1cc(Cl)ccc1O [IMD-0354] + N=C(N)NC(=N)NCCc1ccccc1 [Phenformin] (partner 250 µM)", "how_it_was_run": "as §1"}}}
{"cell line": "UMC-11", "values": [{"measurement": "relative viability", "setting": "[1]; first compound 0.04 µM", "result": 0.202}, {"measurement": "relative viability", "setting": "[1]; first compound 0.1265 µM", "result": 0.219}, {"measurement": "relative viability", "setting": "[1]; first compound 0.4 µM", "result": 0.187}, {"measurement": "relative viability", "setting": "[1]; first compound 1.265 µM", "result": 0.182}, {"measurement": "relative viability", "setting": "[1]; first compound 4 µM", "result": 0.203}, {"measurement": "relative viability", "setting": "[2]; first compound 0.04 µM", "result": 0.64}, {"measurement": "relative viability", "setting": "[2]; first compound 0.1265 µM", "result": 0.646}, {"measurement": "relative viability", "setting": "[2]; first compound 0.4 µM", "result": 0.522}, {"measurement": "relative viability", "setting": "[2]; first compound 1.265 µM", "result": 0.174}, {"measurement": "relative viability", "setting": "[2]; first compound 4 µM", "result": 0.176}, {"measurement": "relative viability", "setting": "[3]; first compound 0.01 µM", "result": 0.319}, {"measurement": "relative viability", "setting": "[3]; first compound 0.03162 µM", "result": 0.294}, {"measurement": "relative viability", "setting": "[3]; first compound 0.1 µM", "result": 0.302}, {"measurement": "relative viability", "setting": "[3]; first compound 0.3162 µM", "result": 0.282}, {"measurement": "relative viability", "setting": "[3]; first compound 1 µM", "result": 0.23}, {"measurement": "relative viability", "setting": "[4]; first compound 0.04 µM", "result": 0.321}, {"measurement": "relative viability", "setting": "[4]; first compound 0.1265 µM", "result": 0.229}, {"measurement": "relative viability", "setting": "[4]; first compound 0.4 µM", "result": 0.202}, {"measurement": "relative viability", "setting": "[4]; first compound 1.265 µM", "result": 0.167}, {"measurement": "relative viability", "setting": "[4]; first compound 4 µM", "result": 0.181}]}
